Several values for one entry are separate records, joined by “and”; a condition that tells them apart may be missing. Identical values can stand only once.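 Briefly, cells in 96-well plates were exposed to five compound concentrations for 48 h, and endpoints were estimated by linear interpolation. GI50 = concentration required for 50% inhibition of growth. TGI denotes the concentration required for complete inhibition of growth.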
System: NCI/ADR-RES ovarian
Test: NCI-60 cell line screen, 48 h

| SMILES | TGI [µM] | GI50 |
| --- | --- | --- |
| CCOC(=O)c1c(CN2CCCC2)n(-c2ccccc2)c2cc(Br)c(O)cc12 | 57.9 | – |
| Nn1c(-c2ccccc2)n[nH]c1=O | > 100 | – |
| Cc1cc(-c2nc3ccc(F)cc3s2)ccc1NC(=O)[C@H](C)N | 28.5 | – |
| Cc1cc(C)nc(NS(=O)(=O)c2ccc(NC(=O)c3ccc4nc5ccccc5c(Nc5ccc(S(N)(=O)=O)cc5)c4c3)cc2)n1 | > 100 | – |
| Nc1c(-c2ccc(Cl)c(Cl)c2)c2ccc([N+](=O)[O-])cc2c(=O)n1-c1nc2ccccc2s1 | 6.8 | – |
| NS(=O)(=O)c1nnc(NC(=O)Nc2ccc(Cl)c(Cl)c2)s1 | 55.7 | – |
| COC(=O)c1c(C)nc2c1cc(O)c1[nH]c(C)c(C)nc12 | > 100 | – |
| Cn1c2ccc3cc2c(=S)c2cc(ccc21)OCCOCCOCCOCCOCCOCCO3 | > 10 | – |
| O=[N+]([O-])c1cc(C=NC23CC4CC(CC(C4)C2)C3)ccc1Cl | 70.9 | – |
| CCCCCC1=CC(=O)C1(Cl)Cl | 86.6 | – |
| CC(=O)N(C(=O)CC(=O)N1N=C(c2ccccc2)C(N=Nc2ccccc2[N+](=O)[O-])C1=O)c1ccc(Cl)cc1 (stereo not given) | > 10 | – |
| CC(=O)N1C(C(=O)NC2CCCCC2)CSC1c1ccccc1 (stereo not given) | > 100 | – |
| COc1ncc(/C=C2\OC(=O)c3ccccc32)c(OC)n1 | > 100 | – |
| CC(=O)Nn1c(=S)[nH]c2ccccc21 | > 100 | – |
| C[C@]12CCC3C4=C(CCC3C1CCC2=O)C(=O)[C@H]1O[C@H]1C4=O (stereo not given in full) | 17.3 | – |
| CCCCOC(=O)Nc1ccc(S(=O)(=O)Nc2ccccc2Cl)cc1 | 43.4 | – |
| CC(C)c1cc2c(cc1S(=O)(=O)O)[C@@]1(C)CCC[C@@](C)(C(=O)O)C1CC2 (stereo not given in full) | > 100 | – |
| N#CC(Cc1ccccc1)N(CCC1=CCCCC1)C(c1ccccc1)c1ccccc1 (stereo not given) | > 100 | – |
| C/C(=C\CBr)CCC(Br)C(C)(C)Br (stereo not given) | > 100 | – |
| C#CCn1c(=O)c2ccccc2n(CC#C)c1=O | > 10 | – |
| [N-]=[N+]=NC(c1ccccc1)(c1ccccc1)c1ccccc1 | 34.1 | – |
| CC1CN(C)c2ccccc2N=C1NN (stereo not given) | > 100 | – |

| SMILES | TGI [µM] | GI50 |
| --- | --- | --- |
| CC(=O)c1c2c(c3ccccc3c1O)O[C@@H]1OCC[C@H]21 | > 100 | – |
| C[C@]12CC[C@H](O)CC1=CC[C@@H]1[C@@H]2CC[C@]2(C)C(=N/N)/C(=N\O)C[C@@H]12 | > 100 | – |
| Cc1ccc(NC(=O)c2ccc(OP(=O)(O)Nc3ccc(C)cc3)cc2)cc1 | > 100 | – |
| COc1ccc(CN2C(=O)/C(=C\c3cc(OC)c(OC)c(OC)c3)c3ccccc32)cc1 | > 100 | 2.97 µM |
| Cc1ccnc(NS(=O)(=O)c2ccc(N=[N+]=[N-])cc2)n1 | > 100 | – |
| Cc1ccccc1C(=N)c1ccccc1Cc1cccc2ccccc12 | 88.6 | – |
| CCC(=O)NCC1CCCN2CCCCC12 (stereo not given) | > 100 | – |
| O=C(C1OC1c1ccc(Br)cc1O)C12CC3CC(CC(C3)C1)C2 (stereo not given) | > 100 | – |
| Cc1ccc(N(Cc2ccccc2)Cc2ccccc2)cc1 | > 100 | – |
| CC(C)=CCC[C@@H](C)c1c(O)c(O)c(C)c2nccnc12 | 17.7 | – |
| S=C(N/N=C(/c1ccccc1)c1ccccn1)N(Cc1ccccn1)Cc1ccccn1 | 1.44 | – |
| Cc1ccc(-c2cc(-c3ccco3)c(C#N)c(=S)n2C2OC(CO)C(O)C(O)C2O)cc1 (stereo not given) | > 100 | 33.8 µM and > 100 µM |
| Cc1oc2c(cc(O)c3cc(O)ccc32)c2cccc1-2 | > 100 | – |
| NC(N)=Nc1ccc(CC(N)NCC(=O)O)cc1 (stereo not given) | > 25 | – |
| O=C(Cc1ccc(O)c(O)c1)NCc1c[nH]c2ccccc12 | > 100 | – |
| COc1nncc2[nH]c(-c3ccccc3)cc12 | > 100 | – |
| O=C(NCc1ccccc1)c1n[nH][nH]c1=O | > 100 | – |
| O=S(=O)(c1ccccc1)c1cccc2c1NCCC2 | > 100 | – |
| COP(=O)(OC)C1=c2c(C)noc2=C2C=COC2C1=O (stereo not given) | > 100 | – |
| CCOC(=O)N1CCN(Cc2cc(=O)n3ccc(C)cc3n2)CC1 | > 100 | – |
| COc1cccc(C2SC(N)=Nc3c2c(C)nn3C(=O)c2ccccc2O)c1 (stereo not given) | > 10 | – |

System: MOLT-4 leukemia
Test: NCI-60 cell line screen, 48 h

| SMILES | TGI [µM] | GI50 |
| --- | --- | --- |
| CCOC(=O)c1c(CN2CCCC2)n(-c2ccccc2)c2cc(Br)c(O)cc12 | 41.7 | – |
| Nn1c(-c2ccccc2)n[nH]c1=O | > 100 | – |
| Cc1cc(-c2nc3ccc(F)cc3s2)ccc1NC(=O)[C@H](C)N | 12.8 | – |
| Cc1cc(C)nc(NS(=O)(=O)c2ccc(NC(=O)c3ccc4nc5ccccc5c(Nc5ccc(S(N)(=O)=O)cc5)c4c3)cc2)n1 | > 100 | – |
| Nc1c(-c2ccc(Cl)c(Cl)c2)c2ccc([N+](=O)[O-])cc2c(=O)n1-c1nc2ccccc2s1 | > 100 | – |
| NS(=O)(=O)c1nnc(NC(=O)Nc2ccc(Cl)c(Cl)c2)s1 | 84.2 | – |
| COC(=O)c1c(C)nc2c1cc(O)c1[nH]c(C)c(C)nc12 | > 100 | – |
| Cn1c2ccc3cc2c(=S)c2cc(ccc21)OCCOCCOCCOCCOCCOCCO3 | > 10 | – |
| O=[N+]([O-])c1cc(C=NC23CC4CC(CC(C4)C2)C3)ccc1Cl | 27 | – |
| CCCCCC1=CC(=O)C1(Cl)Cl | 15.3 | – |
| CC(=O)N(C(=O)CC(=O)N1N=C(c2ccccc2)C(N=Nc2ccccc2[N+](=O)[O-])C1=O)c1ccc(Cl)cc1 (stereo not given) | > 10 | – |
| CC(=O)N1C(C(=O)NC2CCCCC2)CSC1c1ccccc1 (stereo not given) | > 100 | – |
| COc1ncc(/C=C2\OC(=O)c3ccccc32)c(OC)n1 | > 100 | – |
| CC(=O)Nn1c(=S)[nH]c2ccccc21 | > 100 | – |
| C[C@]12CCC3C4=C(CCC3C1CCC2=O)C(=O)[C@H]1O[C@H]1C4=O (stereo not given in full) | 4.32 | – |
| CCCCOC(=O)Nc1ccc(S(=O)(=O)Nc2ccccc2Cl)cc1 | 51.5 | – |
| CC(C)c1cc2c(cc1S(=O)(=O)O)[C@@]1(C)CCC[C@@](C)(C(=O)O)C1CC2 (stereo not given in full) | > 100 | – |
| N#CC(Cc1ccccc1)N(CCC1=CCCCC1)C(c1ccccc1)c1ccccc1 (stereo not given) | > 100 | – |
| C/C(=C\CBr)CCC(Br)C(C)(C)Br (stereo not given) | > 100 | – |
| C#CCn1c(=O)c2ccccc2n(CC#C)c1=O | > 10 | – |
| [N-]=[N+]=NC(c1ccccc1)(c1ccccc1)c1ccccc1 | 44.8 | – |

| SMILES | TGI [µM] | GI50 |
| --- | --- | --- |
| CC1CN(C)c2ccccc2N=C1NN (stereo not given) | > 100 | – |
| CC(=O)c1c2c(c3ccccc3c1O)O[C@@H]1OCC[C@H]21 | > 100 | – |
| C[C@]12CC[C@H](O)CC1=CC[C@@H]1[C@@H]2CC[C@]2(C)C(=N/N)/C(=N\O)C[C@@H]12 | > 100 | – |
| Cc1ccc(NC(=O)c2ccc(OP(=O)(O)Nc3ccc(C)cc3)cc2)cc1 | > 100 | – |
| Cc1ccnc(NS(=O)(=O)c2ccc(N=[N+]=[N-])cc2)n1 | > 60.4 | – |
| Cc1ccccc1C(=N)c1ccccc1Cc1cccc2ccccc12 | 42.3 | – |
| CCC(=O)NCC1CCCN2CCCCC12 (stereo not given) | > 100 | – |
| O=C(C1OC1c1ccc(Br)cc1O)C12CC3CC(CC(C3)C1)C2 (stereo not given) | 66.7 | – |
| Cc1ccc(N(Cc2ccccc2)Cc2ccccc2)cc1 | 79.3 | – |
| CC(C)=CCC[C@@H](C)c1c(O)c(O)c(C)c2nccnc12 | > 53.1 | – |
| S=C(N/N=C(/c1ccccc1)c1ccccn1)N(Cc1ccccn1)Cc1ccccn1 | 16.1 | – |
| Cc1ccc(-c2cc(-c3ccco3)c(C#N)c(=S)n2C2OC(CO)C(O)C(O)C2O)cc1 (stereo not given) | > 100 | 7.35 µM and 18.7 µM |
| Cc1oc2c(cc(O)c3cc(O)ccc32)c2cccc1-2 | > 100 | – |
| NC(N)=Nc1ccc(CC(N)NCC(=O)O)cc1 (stereo not given) | > 25 | – |
| O=C(Cc1ccc(O)c(O)c1)NCc1c[nH]c2ccccc12 | > 100 | – |
| COc1nncc2[nH]c(-c3ccccc3)cc12 | 18.1 | – |
| O=C(NCc1ccccc1)c1n[nH][nH]c1=O | > 100 | – |
| O=S(=O)(c1ccccc1)c1cccc2c1NCCC2 | > 100 | – |
| COP(=O)(OC)C1=c2c(C)noc2=C2C=COC2C1=O (stereo not given) | > 100 | – |
| CCOC(=O)N1CCN(Cc2cc(=O)n3ccc(C)cc3n2)CC1 | > 100 | – |
| COc1cccc(C2SC(N)=Nc3c2c(C)nn3C(=O)c2ccccc2O)c1 (stereo not given) | > 10 | – |

System: SN12C renal
Test: NCI-60 cell line screen, 48 h

| SMILES | TGI [µM] |
| --- | --- |
| CCOC(=O)c1c(CN2CCCC2)n(-c2ccccc2)c2cc(Br)c(O)cc12 | 30.2 |
| Nn1c(-c2ccccc2)n[nH]c1=O | > 100 |
| Cc1cc(-c2nc3ccc(F)cc3s2)ccc1NC(=O)[C@H](C)N | 28.7 |
| Cc1cc(C)nc(NS(=O)(=O)c2ccc(NC(=O)c3ccc4nc5ccccc5c(Nc5ccc(S(N)(=O)=O)cc5)c4c3)cc2)n1 | > 100 |
| Nc1c(-c2ccc(Cl)c(Cl)c2)c2ccc([N+](=O)[O-])cc2c(=O)n1-c1nc2ccccc2s1 | 12.3 |
| NS(=O)(=O)c1nnc(NC(=O)Nc2ccc(Cl)c(Cl)c2)s1 | 39.7 |
| COC(=O)c1c(C)nc2c1cc(O)c1[nH]c(C)c(C)nc12 | > 100 |
| Cn1c2ccc3cc2c(=S)c2cc(ccc21)OCCOCCOCCOCCOCCOCCO3 | > 10 |
| O=[N+]([O-])c1cc(C=NC23CC4CC(CC(C4)C2)C3)ccc1Cl | 35.2 |
| CCCCCC1=CC(=O)C1(Cl)Cl | 72 |
| CC(=O)N(C(=O)CC(=O)N1N=C(c2ccccc2)C(N=Nc2ccccc2[N+](=O)[O-])C1=O)c1ccc(Cl)cc1 (stereo not given) | > 10 |
| CC(=O)N1C(C(=O)NC2CCCCC2)CSC1c1ccccc1 (stereo not given) | > 100 |
| COc1ncc(/C=C2\OC(=O)c3ccccc32)c(OC)n1 | > 100 |
| CC(=O)Nn1c(=S)[nH]c2ccccc21 | > 100 |
| C[C@]12CCC3C4=C(CCC3C1CCC2=O)C(=O)[C@H]1O[C@H]1C4=O (stereo not given in full) | 7.71 |
| CCCCOC(=O)Nc1ccc(S(=O)(=O)Nc2ccccc2Cl)cc1 | 48.8 |
| CC(C)c1cc2c(cc1S(=O)(=O)O)[C@@]1(C)CCC[C@@](C)(C(=O)O)C1CC2 (stereo not given in full) | > 100 |
| C/C(=C\CBr)CCC(Br)C(C)(C)Br (stereo not given) | > 100 |
| C#CCn1c(=O)c2ccccc2n(CC#C)c1=O | > 10 |
| [N-]=[N+]=NC(c1ccccc1)(c1ccccc1)c1ccccc1 | 30.9 |
| CC1CN(C)c2ccccc2N=C1NN (stereo not given) | > 100 |
| CC(=O)c1c2c(c3ccccc3c1O)O[C@@H]1OCC[C@H]21 | > 100 |

— PubChem BioAssay (NCI)
